Data from patent EP4454710A1, “BISPECIFIC FUSION PROTEINS WITH IMMUNOSUPPRESSIVE ACTIVITY” (Universitat de Barcelona, priority 2023, dated 2024).

Tests used:
Format in all cases: cell-based, human
Details in all cases: Tacrolimus 10 ng/mL (Table 3); 7 days MLR; mean +/- SD
CD3^+CD4^+ cells = experiment: In vitro T cell proliferation assay (allogenic PBMC co-culture, MLR), CD3+CD4+ cells
Source text: (§1) Frozen PBMC were thawed in RPMI medium (Gibco, Thermofisher scientific, Waltham, Massachusetts, USA) with 20% fetal bovine serum (Cytiva, Little Chalfont, Buckinghamshire, United Kingdom). 200 000 PBMC from an individual, stained with CelltraceTM Violet Dye (Thermofisher scientific), were cocultured with 200 000 PBMC from another individual stained with CelltraceTM Farr Red Dye (Thermofisher Scientific) in RPMI medium supplemented with 10 % FBS and penicilline-streptomycine (Cultek, Madrid, Spain) for 7 days. […] Cells were analyzed using a LSRFortessaTM flow cytometer with DIVA (BD Biosciences) and FlowJo Softwares (Tree Star, Ashland, OR, USA). For each condition, we assessed the proportion of PBMC with low Violet or Farr Red dye staining among CD3^+ cells, C3^+CD4^+ cells and CD3^+CD4^+PD-1^+ cells and proceeded to normalization to the MLR without drug condition.

CD3^+ cells = experiment: In vitro T cell proliferation assay (allogenic PBMC co-culture, MLR), CD3+ cells
Source text: as §1

CD3^+CD4^+PD-1^+ cells = experiment: In vitro T cell proliferation assay (allogenic PBMC co-culture, MLR), CD3+CD4+PD-1+ cells
Source text: as §1

## C=CC[C@@H]1/C=C(\C)C[C@H](C)C[C@H](OC)[C@H]2O[C@@](O)(C(=O)C(=O)N3CCCC[C@H]3C(=O)O[C@H](/C(C)=C/[C@@H]3CC[C@@H](O)[C@H](OC)C3)[C@H](C)[C@@H](O)CC1=O)[C@H](C)C[C@@H]2OC [Tacrolimus]
CD3^+CD4^+ cells
  Proliferation of CD3^+CD4^+ cells (% of proliferation compared with the condition without drug): 23.34 +/- 20.03%
CD3^+ cells
  Proliferation of CD3^+ cells (% of proliferation compared with the condition without drug): 19.35 +/- 14.78%
CD3^+CD4^+PD-1^+ cells
  Proliferation of CD3^+CD4^+PD-1^+ cells (% of proliferation compared with the condition without drug): 25.65 +/-20.39%
